Source: patent publication US20230295088A1, “INSULIN SENSITIZERS FOR THE TREATMENT OF DIABETES MELLITUS” (University of Iowa Research Foundation, priority 2020, published 2023)
Entries after “also recorded” stand apart in the source; their conditions may differ.

Experiments:
[1] = system: GLUT4 translocation in C2C12 myoblast cell line stably expressing HiBiT-GLUT4 (HBG4); experiment: HiBiT (NanoBit) luminescence GLUT4 translocation assay in HBG4 C2C12 cells; assay type: cell-based, mouse
Description: An assay was used to identify potentiators of insulin-stimulated GLUT4 translocation. In one embodiment, the assay employs Nanobit technology. This technology is based on the recombination of two complementary fragments, HiBiT and LgBiT, of the Nanoluc luciferase. HiBit was fused to an extracellular region of GLUT4 to allow for the rapid quantitation of its the surface density in live cells by adding the reconibinantly produced complementary fragment LgBiT and the luciferase substrate. Since LgBiT is not membrane permeant, only proteins at the plasma membrane are quantified. To measure GLUT4 translocation, a stable C2C12 myoblast cell line was prepared by expressing a HiBiT-tagged mouse GLUT4. […] The Chembridge Diverset library of 49,600 compounds was screened and 1264 hits were identified. A subset of those hits were selected and retested in the presence and absence of insulin.
Development of a HTS assay for real-time measurement of GLUT4 translocation. To measure GLUT4 translocation in a homogenous and HIS amenable manner, NanoBit technology was used. This technology relies on the rapid recombination of 2 fragments of the Nanoluc luciferase (HiBit and LgBiT) with high affinity for each other. Fragments have no enzymatic activity on their own but generate a bright luminescent signal when recombined. A C2C12 myoblast cell line was prepared that stably expressed HiBiT-GLUT4 (HBG4), in which the small 11 amino acid HiBiT fragment was inserted into the first extracellular loop of GLUT4. A C-terminal mCherry was also added for microscopic detection. The C2C12 line was chosen as an in vitro model because it is derived from skeletal myoblasts and translocate GLUT4 in response to insulin. Detection of plasma membrane density of HBG4 is achieved by adding recombinant LgBit and substrate to live cells. The assay can be conducted as an endpoint where cells are incubated with insulin before measuring luminescence or as a kinetic assay by adding LgBiT and substrate at the beginning of the experiment and monitor real-time insulin-stimulated GLUT4 translocation.
An assay to measure GLUT4 translocation in a homogenous and HIS amenable manner using NanoBit technology was developed. This technology relies on the rapid recombination of 2 fragments of the Nanoiuc luciferase (HiBit and LgBiT) with high affinity for each other. Fragments have no enzymatic activity on their own but generate a bright luminescent signal when recombined. A C2C12 myoblast cell line stably expressing HiBiT-GLUT4 (HBG4), in which the small 11 amino acid HiBiT fragment was inserted into the first extracellular loop of GLUT4 was prepared. A C-terminal mCherry was also added for microscopic detection (FIGS. 1A and B). The C2C12 line was chosen as an in-vitro model because it is derived from skeletal myoblasts and translocates GLUT4 in response to insulin. Detection of plasma membrane density of HBG4 is achieved by adding recombinant LgBit and substrate to live cells (FIG. 1C). The assay can be conducted as a kinetic assay by adding LgBiT and substrate at the beginning of the experiment and monitoring real-time insulin-stimulated GLUT4 translocation (FIGS. 1D and E).

[2] = system: GLUT4 translocation in HBG4 mice; experiment: In vivo GLUT4 translocation in HBG4 mice (IVIS luminescence); set-up: species or system mouse; details: HBG4 mice, daily IP 50 mg/Kg for 3 days, insulin IP
Procedure: (§1) C3 potentiates insulin action in primary adipocytes and in live mice. Using HBG4 mice, insulin stimulated GLUT4 translocation of endogenous GLUT4 was measured in primary skeletal muscle fibers and primary adipocytes. Enhancement of insulin-stimulated translocation of endogenous GLUT4 was also shown in primary adipocytes in the presence of C3. In parallel dishes, increased insulin-stimulated glucose uptake in HBG4 primary adipocyte treated with C3 was found. […] To determine if the HBG4 mouse can be used to measure GLUT4 translocation in vivo, HBG4 mice were pretreated with daily IP injections of vehicle or 50 mg/Kg C3 for 3 days. On the day of the experiment, mice were injected with vehicle or insulin IP followed by a subcutaneous injection of LgBiT and substrate around the leg muscles. Mice were then anesthetized and placed into an IVIS system to measure luminescence. […] Baseline signal was detected in vehicle and C3 treated HBG4 mice. […]
DIO HBG4 mice were treated with vehicle or C59 for 2 weeks and injected i.v. with an adenovirus coding for a secreted form of LgBiT (allowing LgBiT production and secretion predominantly by the liver into the circulation) 2 days prior to the experiment. Animal were then injected with saline or insulin 10 minutes before i.v. injection of substrate and luminescence imaging using an IVIS system.

liver = experiment: Liver toxicity markers and liver triglyceride in treated mice; assay type: in vivo, mouse
Description: (§2) C3 is not liver toxic and acts through a different mechanism than TZDs. […] Deleterious side effect or TZDs are due to their agonism of PPARg.

primary adipocytes = experiment: Insulin-stimulated glucose uptake in primary adipocytes; assay type: cell-based, mouse
Procedure: C3 potentiates insulin action in primary adipocytes and in live mice. Using HBG4 mice, insulin stimulated GLUT4 translocation of endogenous GLUT4 was measured in primary skeletal muscle fibers and primary adipocytes. Enhancement of insulin-stimulated translocation of endogenous GLUT4 was also shown in primary adipocytes in the presence of C3. In parallel dishes, increased insulin-stimulated glucose uptake in HBG4 primary adipocyte treated with C3 was found. […] To determine if the HBG4 mouse can be used to measure GLUT4 translocation in vivo, HBG4 mice were pretreated with daily IP injections of vehicle or 50 mg/Kg C3 for 3 days. On the day of the experiment, mice were injected with vehicle or insulin IP followed by a subcutaneous injection of LgBiT and substrate around the leg muscles. Mice were then anesthetized and placed into an IVIS system to measure luminescence. […] Baseline signal was detected in vehicle and C3 treated HBG4 mice. […] It also further confirms the insulin-sensitizing activity of C3 in vivo.

lean mice = experiment: Glucose tolerance test in lean mice; assay type: in vivo, mouse; details: single injection before GTT
Procedure: C3 improves glucose tolerance in lean and obese insulin resistant mice. To test whether C3 improves glucose handling, lean mice were injected with vehicle or C3 30 minutes before performing a glucose tolerance test. […] To further determine if C3 can reverse glucose intolerance, WT mice were made insulin-resistant by feeding them a high fat diet (HFD) for a period of 10 weeks. Diet induced obese (DIO) mice were then injected with vehicle or C3 for 2 weeks while remaining on HFD. […] Together those results establish in vivo efficacy of C3 for the treatment of insulin resistance.

[3] = system: diet-induced obese (DIO) mice; experiment: Glucose tolerance, fasting glucose and insulin in diet-induced obese (DIO) insulin-resistant mice; assay type: in vivo, mouse
Procedure: To test whether C3 improves glucose handling, WT mice were made insulin-resistant by feeding them a high fat diet (HFD) for a period of 10 weeks. After 10 weeks, mice were injected with vehicle. C3 (20 mg/kg), or the TZD rosiglitazone (20 mg/kg) for 2 weeks while remaining on the HFD. […] To further test the in vivo efficacy of C3, a glucose tolerance test (GTT) was perfromed.
To test whether C3 improves glucose handling, lean mice were injected with vehicle or C3 30 minutes before performing a glucose tolerance test. […] To further determine if C3 can reverse glucose intolerance, WT mice were made insulin-resistant by feeding them a high fat diet (HFD) for a period of 10 weeks. Diet induced obese (DIO) mice were then injected with vehicle or C3 for 2 weeks while remaining on HFD.

PPARg = biological target: T1, PPARg (Homo sapiens, UniProt P37231); experiment: Luminescent PPARg reporter assay in vitro; assay type: cell-based
T1 sequence (P37231 1-505): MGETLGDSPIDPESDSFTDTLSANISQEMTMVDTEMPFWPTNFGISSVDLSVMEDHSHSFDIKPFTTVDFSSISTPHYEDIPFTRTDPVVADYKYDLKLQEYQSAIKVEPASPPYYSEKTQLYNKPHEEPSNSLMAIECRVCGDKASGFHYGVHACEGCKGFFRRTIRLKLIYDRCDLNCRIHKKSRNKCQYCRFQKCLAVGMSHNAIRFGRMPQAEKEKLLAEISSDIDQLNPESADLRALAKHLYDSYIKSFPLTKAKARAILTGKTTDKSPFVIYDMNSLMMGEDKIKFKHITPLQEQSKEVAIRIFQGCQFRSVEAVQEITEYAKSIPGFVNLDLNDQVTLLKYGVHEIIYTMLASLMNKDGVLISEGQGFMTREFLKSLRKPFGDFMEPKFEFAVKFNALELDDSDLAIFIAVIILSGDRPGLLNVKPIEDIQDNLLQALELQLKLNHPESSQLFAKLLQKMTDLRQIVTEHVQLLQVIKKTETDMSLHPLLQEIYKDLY
Description: as §2

[4] = system: endogenous GLUT4 in primary adipocytes; experiment: Insulin-stimulated translocation of endogenous GLUT4 in HBG4 primary adipocytes; assay type: cell-based, mouse
Procedure: Generating a mouse model for measurement of GLUT4 translocation ex vivo and in-vivo. To enable the validation of identified compounds in a relevant system, a mouse model in which the coding sequence for HiBiT was inserted in the first extracellular loop of endogenous GLUT4 using CRISPR/Cas9 (HBG4 mouse) was prepared. […] GLUT4 was detected in skeletal muscle, white adipose tissue, and brown adipose tissue but not in the brain, spleen, liver, or pancreas, thus, confirming the normal distribution of HiBit-labeled GLUT4 and the ability of this assay to detect endogenous GLUT4 in mouse tissues.
as §1, with “On the day of the experiment, mice were injected with vehicle or insulin IP followed by a subcutaneous injection of LgBiT and substrate around the leg muscles.” left out

[5] = DIO mice, 2 weeks treatment (20 mg/kg)

O=C(Nc1ccc(Cl)c(Cl)c1)C12CC3CC(CC(C3)C1)C2 [Compound C3]
GLUT4 translocation on its own ([1]; in the absence of insulin, HBG4 C2C12 cells): no effect
insulin-stimulated GLUT4 translocation ([1]; in the presence of insulin, WT HBG4 C2C12 cells): significantly potentiated; also recorded: enhanced
insulin-induced luminescence (GLUT4 translocation) in vivo [2]: further increased
liver triglyceride content (liver; DIO mice, compared to saline treated mice): significant decrease
plasma level of liver enzyme ALT (liver; treated mice): Neither liver toxicity markers were increased
plasma level of liver enzyme AST (liver; treated mice): Neither liver toxicity markers were increased
insulin-stimulated glucose uptake (primary adipocytes): significantly improved; also recorded: increased
glucose clearance in glucose tolerance test (lean mice): drastically improved; also recorded: significantly accelerated
glucose handling in glucose tolerance test ([3]; DIO mice (HFD 10 weeks), injected for 2 weeks (20 mg/kg)): drastically improved; also recorded: rapidly cleared glucose; also recorded: very significant improvement
insulin response to the glucose challenge ([3]; DIO mice, 20 mg/kg for 2 weeks, GTT): normal insulin response
fasting blood glucose [3, 5]: significantly decreased
fasting plasma insulin [3, 5]: significantly decreased
PPARg agonist activity (PPARg): did not activate; also recorded: no agonist activity; also recorded: neither C3 nor C59 have PPARγ agonist activity
insulin-stimulated translocation of endogenous GLUT4 [4]: Enhancement
